Where two headings read alike, the source gives them in different places.
What was measured:
[1] = Rat pharmacokinetics after oral delivery of 10 mg/kg, cyclodextrin formulation; assay type: in vivo; settings: oral 10 mg/kg, female Sprague Dawley rats
Protocol: Pharmokinetics of the NCEs were assessed by LC/MS after oral delivery of 10 mg/kg to female Sprague Dawley rats using a cyclodextrin formulation.

[2] = tested on: Human umbilical vein endothelial cells (HUVEC); experiment: BrdU proliferation assay, HUVEC (anti-angiogenic activity); assay type: cell-based
From the text: (§1) Cell Culture: Human umbilical vein endothelial cells (HUVEC) were obtained from Clonetics (San Diego, Calif.), MCF7 cells were the kind gift of Dr. Dorraya El Ashry (University of Michigan), MDA-MB-231 a human breast carcinoma, PC3 a human prostate carcinoma, and U87-MG a human glioma, cell lines were obtained from ATCC. HUVEC cultures were maintained for up to 5 passages in EGM containing bovine brain extract (Clonetics) and 1× antibiotic-antimycotic (BioWhittaker, Walkersville, Md.). MDA-MB-231, PC3, U87-MG and MCF-7 cells were maintained in DMEM/F12 (1:1) containing 10% (v/v) fetal bovine serum (Hyclone Laboratories, Logan, Utah) and 1× antibiotic-antimycotic. MCF7 cells were used between passage 60 and passage 100.
(§2) Proliferation Assays: Proliferation was measured by cell counting using a Coulter Zl cell counter (Coulter Corporation, Hialeah, Fla.) or by evaluation of DNA synthesis. Each condition was done in triplicate and experiments were repeated at least twice. To determine estrogenicity of the analogs, MCF7 estrogen-dependent proliferation assays were performed. The cells were seeded in complete media at 10,000 cells/well in a 24 well plate after allowing the cells to adhere overnight and the seeding density was determined by cell counts. Cells were washed with PBS (37° C.) and starved by placing them in IMEM-phenol red free media containing 2% charcoal-dextran fetal bovine-stripped serum (Valley Biomedical, Winchester, Va.) and 1× antibiotic-antimycotic. After 3 days of starvation, cells were treated with or without increasing concentrations of compounds, replacing the media every 2-3 days and counted after 7 days of treatment. In order to ensure that only the added test compounds stimulated growth, experiments were performed only with cell cultures that duplicated less than once during the starvation period. Values are expressed as MCF7 stimulation index (SI) relative to 2ME2 (defined as 1.00). A value less than 1.00 indicates reduced estrogenicity. Estradiol is used as a positive control.
(§3) To determine anti-tumor and anti-angiogenic activities of the analogs, proliferation assays were performed by evaluating detection of DNA synthesis by use of the 5-bromo-2′-deoxyuridine (BrdU) cell proliferation colorimetric ELISA kit from Roche (Indianapolis, Ind.) according to the manufacturer's instructions. For BrdU assays, the cells were seeded at 1,000 cells/well (MDA-MB-231, anti-tumor activity) or 3,000 cells/well (HUVEC, anti-angiogenic activity) in a 96 well plate, allowed to attach overnight and then exposed to the compound for 48 h. IC50 value is the concentration at which cell proliferation is inhibited by 50%.
(§4) Antiproliferative activity of the NCEs were assessed in tumor cell lines (MDA-MB-231 a breast carcinoma, PC3 a prostate carcinoma and U87-MG a glioma) and endothelial cells (HUVEC).

U87-MG a human glioma = experiment: Proliferation assay, U87-MG; assay type: cell-based
From the text: as §1, §2, §3, §4

[3] = tested on: MDA-MB-231 a human breast carcinoma; experiment: BrdU proliferation assay, MDA-MB-231 (anti-tumor activity); assay type: cell-based
From the text: as §1, §2, §3, §4

[4] = tested on: PC3 a human prostate carcinoma; experiment: Proliferation assay, PC3; assay type: cell-based
From the text: as §1, §2, §3, §4

[5] = tested on: human hepatocyte suspensions; experiment: Hepatocyte incubations, human; assay type: in vitro ADME; settings: human hepatocytes, NR = no reaction
Protocol: (§5) Hepatocyte Incubations: An in vitro measure of metabolism using cells from rat and human liver. Rat and human hepatocyte suspensions (10^6 cells per mL of serum-free (H)CL15 culture medium) were incubated with 2 concentrations (1 and 5 μM) of each of the compounds. Stock solutions were prepared in DMSO, and were further diluted in culture medium to the final test concentrations. 7-Ethoxycoumarin (7-EC) were included as a positive control substrate for P450. A 0.1 M 7-EC stock solution was prepared in DMSO, and the final assay concentration was 100 μM. The reactions were initiated by the addition of the substrates, incubated at 37° C., and terminated after 0, 60 and 120 minutes by addition of acetonitrile. The positive 7-EC control reactions were stopped with perchloric acid or ZnSO4 and BaOH after 60-minutes of incubation. The reaction mixture was centrifuged to remove the cell debris, and the supernatant was used for subsequent analysis by HPLC/LC-MS. If necessary, the supernatants were flash frozen in liquid N2 and stored at −70° C. until further analysis. HPLC was used to analyze product formation from 7-EC. Analyses to determine the concentration of the test compounds were carried out using reverse phase HPLC with tandem mass spectrometric detection (LC-MS/MS). Samples were analyzed to measure the disappearance of parent compound over time. The rate of metabolism was estimated by fitting a curve to the data for each concentration against time using GraphPad Prism Version 3.02 software.

MCF7 cells = experiment: MCF7 estrogen-dependent proliferation assay (estrogenicity); assay type: cell-based, human; settings: stimulation index, 2ME2 defined as 1.00; less than 1.00 = reduced estrogenicity; 7 days of treatment
From the text: as §1
as §2, with “[…].” for “Values are expressed as MCF7 stimulation index (SI) relative to 2ME2 (defined as 1.00). A value less than 1.00 indicates reduced estrogenicity.”

[6] = tested on: Rat hepatocyte suspensions; experiment: Hepatocyte incubations, rat; assay type: in vitro ADME; settings: rat hepatocytes, NR = no reaction
Protocol: as §5

[7] = Example 2, Table VII, read-out: IC50 value (μM) HUVEC
[8] = Example 2, Table VII, read-out: IC50 value (μM) U87-MG
[9] = Example 2, Table VII, read-out: IC50 value (μM) MDA-MB-231
[10] = Example 2, Table VII, read-out: IC50 value (μM) PC3

Row | SMILES | AUCall [1] | Cmax [1] | Tmax [1] | T½ [1] | IC50 [2, 7] | IC50 (U87-MG a human glioma; [8]) | IC50 [3, 9] | IC50 [4, 10] | also measured
1 | COc1cc2c(cc1C(N)=O)CC[C@@H]1[C@@H]2CC[C@@]2(C)[C@H]1CCC21OCCO1 [ENMD-1565, 17-(1,3-dioxolane)-2-methoxyestra-1,3,5(10)-triene-3 carboxamide] | 4657 ng·h/mL | 1379 ng/mL | 60 min | 97.8 min | 0.91 µM | 1.27 ± 0.44 µM | 1.21 ± 0.47 µM | 1.91 ± 0.36 µM | 
2 | COc1cc2c(cc1O)CC[C@@H]1[C@@H]2CC[C@]2(C)[C@@H](O)CC[C@@H]12 [Compound 1, 2-Methoxyestradiol, reference compound] |  |  |  |  |  |  |  |  | Hepatocyte Human 60/120′ (1 uM): 60′ ([5]; 1 uM, 60 minutes): 0/0; Hepatocyte Human 60/120′ (1 uM): 120′ ([5]; 1 uM, 120 minutes): 0/0; Hepatocyte Human 60/120′ (5 uM): 60′ ([5]; 5 uM, 60 minutes): 20; Hepatocyte Human 60/120′ (5 uM): 120′ ([5]; 5 uM, 120 minutes): 0; IC50 ([2]; Homo sapiens, HUVEC, BrdU DNA synthesis, 48 h exposure, read-out: HUVEC (IC50 μM)): 0.68 ± 0.15 µM; MCF7 SI Relative to 2ME2 (MCF7 cells): 1.00; IC50 (U87-MG a human glioma; Homo sapiens, U-87 MG, proliferation, read-out: U87-MG (IC50 μM)): 1.48 ± 0.62 µM; IC50 ([3]; Homo sapiens, MDA-MB-231, BrdU DNA synthesis, 48 h exposure, read-out: MDA-MB-231 (IC50 μM)): 0.69 ± 0.14 µM; Hepatocyte Rat 60/120′ (1 uM): 60′ ([6]; 1 uM, 60 minutes): 0/0; Hepatocyte Rat 60/120′ (1 uM): 120′ ([6]; 1 uM, 120 minutes): 0/0; Hepatocyte Rat 60/120′ (5 uM): 60′ ([6]; 5 uM, 60 minutes, unit assumed): 39%; Hepatocyte Rat 60/120′ (5 uM): 120′ ([6]; 5 uM, 120 minutes, unit assumed): 24%; IC50 ([4]; Homo sapiens, proliferation, read-out: PC3 (IC50 μM)): 1.08 ± 0.5 µM
3 | COc1cc2c(cc1C(N)=O)CC[C@@H]1[C@@H]2CC[C@]2(C)[C@@H](OC)CC[C@@H]12 [ENMD-1756, 2,17β-(bismethoxy)estra-1,3,5(10)-triene-3-carboxamide] | 1442 ng·h/mL | 665 ng/mL | 30 min | 53.4 min | 0.62 µM | 0.71 ± 0.09 µM | 0.89 ± 0.21 µM | 1.14 ± 0.45 µM | 
